Data as given in patent EP0272929B1, “Enkephalinase for therapeutic use” (GENENTECH, INC., priority 1986, dated 1988).
“Also recorded” adds a separate entry of the source.

Experiments:
[1] = target: T1, purified rat kidney enkephalinase (Rattus norvegicus, UniProt P07861); type: biochemical; conditions: peptide 10⁻⁴M, 50 ng enzyme, 30 minutes at 37°C
T1 construct: purified rat kidney enkephalinase (50 ng in 150 ul 50 mM, pH7.4 HEPES buffer containing 0.02% Triton X-100); from tissue; host or cells: rat kidney
T1 sequence (P07861 1-750): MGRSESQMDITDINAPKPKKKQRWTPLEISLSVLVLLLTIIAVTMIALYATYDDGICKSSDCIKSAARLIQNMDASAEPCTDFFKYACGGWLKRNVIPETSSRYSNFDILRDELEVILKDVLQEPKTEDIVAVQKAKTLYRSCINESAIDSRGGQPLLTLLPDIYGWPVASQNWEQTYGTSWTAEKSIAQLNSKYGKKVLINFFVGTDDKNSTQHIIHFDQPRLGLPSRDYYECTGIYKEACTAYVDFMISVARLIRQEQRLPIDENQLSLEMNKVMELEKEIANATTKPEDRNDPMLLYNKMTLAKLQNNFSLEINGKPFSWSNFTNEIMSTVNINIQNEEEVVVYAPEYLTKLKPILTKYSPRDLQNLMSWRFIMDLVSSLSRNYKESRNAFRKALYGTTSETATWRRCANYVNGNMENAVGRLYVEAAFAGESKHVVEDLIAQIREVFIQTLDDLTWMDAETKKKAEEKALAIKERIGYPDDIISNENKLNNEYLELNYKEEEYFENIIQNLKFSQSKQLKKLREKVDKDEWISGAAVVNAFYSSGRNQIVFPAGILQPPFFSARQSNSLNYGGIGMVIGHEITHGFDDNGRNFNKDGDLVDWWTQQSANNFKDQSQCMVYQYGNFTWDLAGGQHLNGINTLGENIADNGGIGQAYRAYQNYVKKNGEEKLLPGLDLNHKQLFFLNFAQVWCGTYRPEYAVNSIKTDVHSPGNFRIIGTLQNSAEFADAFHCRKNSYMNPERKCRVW

enkephalinase = target: T2, enkephalinase (Mustela putorius furo, UniProt M3XUG8); experiment: Enkephalinase activity of tissue membrane fractions: cleavage of (3H-Tyr1,DAla2,Leu5)enkephalin, inhibition by inhibitors and substrates; type: biochemical, ferret
T2 sequence (M3XUG8 2-749): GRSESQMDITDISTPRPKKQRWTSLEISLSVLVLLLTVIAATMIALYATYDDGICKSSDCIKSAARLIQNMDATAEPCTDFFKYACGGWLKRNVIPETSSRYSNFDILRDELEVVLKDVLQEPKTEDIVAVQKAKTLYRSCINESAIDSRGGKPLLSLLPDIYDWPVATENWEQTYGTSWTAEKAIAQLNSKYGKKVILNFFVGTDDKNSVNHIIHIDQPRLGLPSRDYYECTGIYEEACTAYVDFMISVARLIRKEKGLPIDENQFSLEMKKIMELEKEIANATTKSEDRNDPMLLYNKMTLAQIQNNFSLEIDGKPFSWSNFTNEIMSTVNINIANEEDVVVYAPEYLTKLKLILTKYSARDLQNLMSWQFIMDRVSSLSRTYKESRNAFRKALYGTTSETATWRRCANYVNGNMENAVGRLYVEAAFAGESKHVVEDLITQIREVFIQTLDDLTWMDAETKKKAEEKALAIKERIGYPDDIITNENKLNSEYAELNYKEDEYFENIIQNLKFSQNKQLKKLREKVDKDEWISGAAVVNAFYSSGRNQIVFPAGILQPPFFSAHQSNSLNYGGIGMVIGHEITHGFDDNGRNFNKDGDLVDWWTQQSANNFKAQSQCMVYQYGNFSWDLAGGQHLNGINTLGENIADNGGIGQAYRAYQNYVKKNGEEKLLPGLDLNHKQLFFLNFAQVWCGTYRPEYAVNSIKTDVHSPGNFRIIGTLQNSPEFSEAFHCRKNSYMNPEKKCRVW
Procedure: In this series of experiments, the tissue locations of enkephalinase were determined. Enkephalinase was purified from the ferret kidney to near homogeneity using published methods (Malfroy and Schwartz, Supra). Enkephalinase activity in membrane fractions derived from the vagus nerve, tracheal epithelium, submucosa, muscle, lungs, and kidneys of ferrets was determined. Ferrets were anesthetized, and the vagi, trachea, lungs, and kidneys removed. The tracheal epithelium, submucosa, and muscle were separated from each other by incubating the trachea in Ca⁺⁺-free medium for 15 minutes, after which time, the epithelium was easily removed. The muscle was then separated from the gland-containing submucosa. Each tissue was minced and then homogenized in 50mM HEPES buffer (pH 7.4) using a Polytron homogenizer.
Enkephalinase activity was measured by determining the rates of cleavage of (³H-Tyr¹, DAla², Leu⁵)enkephalin (Research Products International) by membrane fractions or purified enkephalinase. Fifty µl of membrane fraction was incubated for 40 minutes at room temperature with 50 µl of buffer containing (³H-Tyr¹, DAla²,Leu⁵)enkephalin (20nM), after which time the reaction was quenched by adding 50 µl of 2N HCl.
Seventy-five µl of this solution was applied to columns containing polystyrene beads (Poropak-Q); the characteristic metabolite, ³H-Tyr-DAla-Gly, eluted with water, and the radioactivity determined. The protein concentrations were determined by the Bradford procedure (Bradford, M.M. Analytical Biochem. 72:248-254 [1976]), and results of enkephalinase activities were expressed as fmoles substrate cleaved per min per mg protein.

[2] = system: ferret tracheal smooth muscle; experiment: Isometric tension of isolated tracheal smooth muscle rings (contraction by peptides, effect of inhibitors); type: cell-based
Procedure: Twenty-seven ferrets were anesthetized with pentobarbital sodium (45-60 mg/kg, i.p.), and the trachea were removed. Transverse rings (8 mm long) were cut from the trachea and mounted in glass chambers filled with 14 ml of Krebs-Henseleit solution of the following composition (in mMoles/L): NaCl 118, KCl 5.9, CaCl₂ 2.5, MgSO₄ 1.2, NaH₂PO4 1.2, NaHCO₃ 25.5, glucose 5.6, 0.1% bovine serum albumin, and penicillin-streptomycin (100 Units/ml). The soluiton was maintained at 37°C and was aerated continuously in a mixture of 95% O₂-5% CO₂, which produced a pH of 7.4. Six tracheal rings were studied concurrently.
(§1) The tracheal rings were connected to strain gauges (Grass FT03) for continuous recording of isometric tension, and the rings were placed between two rectangular platinum electrodes (6 x 40 mm) for electrical field stimulation. The rings were initially stretched to a tension of 20 g for 30 seconds and were then allowed to equilibrate for 1 hour while resting tension was adjusted to 4 g (Skoogh, B-E. et al., J. Appl. Physiol. 53: 253-257 [1982]). During equilibration, the medium was changed every 15 minutes. […] Id.
The responsiveness to substance P (using concentrations ranging from 10⁻⁸ M to 10⁻⁵ M) and to leu-thiorphan and cumulative dose-response curves to substance P (Peninsula Labs) were obtained. Each succeeding concentration of substance P was added after contraction reached a plateau. After completion of the first dose-response curve to substance P, leu-thiorphan (10⁻⁵ M, Squibb Pharmaceutical) was added to the organ bath. Following a 15 minute incubation, a second dose-response curve to substance P was obtained.
The N-terminal fragment, substance P₁₋₉ was studied because enkephalinase cleaves substance P between the 9 and 10 positions (Matsas, R. et al., Proc. Natl. Acad. Sci. [USA] 80: 3111-3115 [1983]), generating that fragment. (10⁻⁵ M Peninsula Labs). Experiments were also carried out with (DPro², DTrp^7,9)-substance P (10⁻⁵ M) (Peninsula Labs), a substance P antagonist (Hakanson, R. et al., Br. J. Pharmac. 77: 697-700 [1982]) by adding the antagonist after the response to substance P (10⁻⁶ M) and leu-thiorphan (10⁻⁵ M) reached a plateau.
Data were expressed as mean ± SE. For the dose-response curves to substance P, the means between two groups at each concentration were compared by a paired t test. For the studies of electrical field stimulation, responses were compared by one way analysis of variance and Newman-Keuls multiple range test. Significance was accepted at P < 0.05. […]

[3] = system: ferret tracheal smooth muscle; experiment: Electrical field stimulation-induced contraction of isolated tracheal smooth muscle; type: cell-based; conditions: 5 Hz; leu-thiorphan 10⁻⁵ M, 15 min
Procedure: as §1
Increasing concentrations of leu-thiorphan (10⁻¹¹ to 10⁻⁴ M) were added and the stimuli repeated to determine whether leu-thiorphan modulated electrical field stimulation-induced contractions. […] After determining control responses to electrical field stimulation (5 Hz), leu-thiorphan (10⁻⁵ M; 15 min) was added, the stimulus repeated, (DPro²,DTrp^7,9)substance P, the substance P antagonist (10⁻⁵ M; 15 min; Peninisula Labs) was added, and the stimulus was repeated.
Data were expressed as mean ± SE. For the dose-response curves to tachykinins the means between two groups at each concentration were analyzed by an unpaired t test. For the study of electrical field stimulation, responses were compared by one way analysis of variance and Newman-Keuls multiple range test. Significance was accepted at p<0.05.

[4] = system: longitudinal ileal smooth muscle; experiment: Contraction of longitudinal ileal smooth muscle; type: cell-based, ferrets; conditions: inhibitor 10⁻⁵ M
Excerpt: Using methods similar to those with ferret airway smooth muscle, described in Example 7, longitudinal ileal smooth muscle was examined. […] Leu-thiorphan (10⁻⁵ M) shifted the dose response curve to lower concentrations by 1 log unit.

## bombesin
[1]
  fraction of the peptide degraded / hydrolyzed: 80%

## CC(C)C[C@H](NC(=O)C(CS)Cc1ccccc1)C(=O)O (some centres unmarked) [leu-thiorphan, Leucine-thiorphan]
enkephalinase; Epthelium membrane fraction
  Ki: 8.7 nM
enkephalinase; Kidney
  Ki: 3.3 nM
enkephalinase; Lung membrane fraction
  Ki: 2.8 nM
enkephalinase; Muscle membrane fraction
  Ki: 2.1 nM
enkephalinase; Submucosa membrane fraction
  Ki: 2.8 nM
enkephalinase; Vagus/N. membrane fraction
  Ki: 2.1 nM
[2]; 10⁻⁵ M
  effect alone on resting tension: no significant effect on resting tension
[2]; concentrations up to 10⁻⁴ M
  effect on resting tension: did not alter resting tension in any experiment
[2]; inhibitor 10⁻⁵ M
  shift of the dose-response curve to neurokinin A to lower concentrations: two-log units
  shift of the dose-response curve to neurokinin B to lower concentrations: three-log units
  shift of the dose-response curve to substance P to lower concentrations: approximately one log unit; also recorded: approximately one-log unit
[3]
  response to electrical field stimulation, percent of control responses without added drugs: 118 ± 1.7%
[4]
  shift of the dose response curve to substance P to lower concentrations: 1 log unit
